Measured values as given in patent publication US9695155B2, “Herbicidal substituted pyrimidinyloxy benzene compounds” (E. I. DU PONT DE NEMOURS AND COMPANY, priority 2013, dated 2017).

Tests used:
giant foxtail [1] = assay: Test A postemergence; format: in vivo, Setaria faberii; settings: for Plant response rating, Foxtail, Giant: 31 g ai/ha, 0 to 100 scale, 0 no effect, 100 complete control; for Foxtail, Giant plant response rating: 125 g ai/ha, 0 to 100 scale where 0 is no effect and 100 is complete control
Procedure, shortened: (§1)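 Greenhouse pot test, loam/sand soil. Formulation: non-phytotoxic solvent mix plus surfactant. Pre: directed spray onto soil after sowing. Post: plants at 1–2 leaf, 2–10 cm. Rated visually vs untreated controls at ~10 d, 0 (no effect) to 100 (complete control).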

blackgrass = assay: Test A postemergence; format: in vivo, Alopecurus myosuroides; settings: for Plant response rating, Blackgrass: 31 g ai/ha, 0 to 100 scale, 0 no effect, 100 complete control; for Blackgrass plant response rating: 125 g ai/ha, 0 to 100 scale where 0 is no effect and 100 is complete control
Procedure, shortened: as §1

Italian ryegrass [2] = assay: Test A preemergence; format: in vivo, Lolium multiflorum; settings: for Plant response rating, Ryegrass, Italian: 0 to 100 scale where 0 is no effect and 100 is complete control
Procedure, shortened: as §1

Italian ryegrass [3] = assay: Test A postemergence; format: in vivo, Lolium multiflorum; settings: for Plant response rating, Ryegrass, Italian: 31 g ai/ha, 0 to 100 scale, 0 no effect, 100 complete control; for Ryegrass, Italian plant response rating: 125 g ai/ha, 0 to 100 scale where 0 is no effect and 100 is complete control
Procedure, shortened: as §1

galium = assay: Test A postemergence; format: in vivo, Galium aparine; settings: for Plant response rating, Galium: 31 g ai/ha, 0 to 100 scale, 0 no effect, 100 complete control; for Galium plant response rating: 125 g ai/ha, 0 to 100 scale where 0 is no effect and 100 is complete control
Procedure, shortened: as §1

pigweed [4] = assay: Test A postemergence; format: in vivo, Amaranthus retroflexus; settings: for Plant response rating, Pigweed: 31 g ai/ha, 0 to 100 scale, 0 no effect, 100 complete control; for Pigweed plant response rating: 125 g ai/ha, 0 to 100 scale where 0 is no effect and 100 is complete control
Procedure, shortened: as §1

wheat = assay: Test A postemergence; format: in vivo, Triticum aestivum; settings: for Plant response rating, Wheat: 31 g ai/ha, 0 to 100 scale, 0 no effect, 100 complete control; for Wheat plant response rating: 125 g ai/ha, 0 to 100 scale where 0 is no effect and 100 is complete control
Procedure, shortened: as §1

giant foxtail [5] = assay: Test A preemergence; format: in vivo, Setaria faberii; settings: 0 to 100 scale where 0 is no effect and 100 is complete control
Procedure, shortened: as §1

barnyardgrass [6] = assay: Test B flooded paddy test; format: in vivo, Echinochloa crus-galli; settings: Flood, 250 g ai/ha; 0 to 100 scale where 0 is no effect and 100 is complete control
Procedure, shortened: (§2)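 Visual ratings on a 0 to 100 scale, where 100 means complete control, compared treated plants with controls after 13 to 15 days in a greenhouse. Treatment went into paddy water 3 cm deep over the soil, applied to plants at the 2-leaf stage.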

Heteranthera limosa = assay: Test B flooded paddy test; format: in vivo; settings: Flood, 250 g ai/ha; 0 to 100 scale where 0 is no effect and 100 is complete control
Procedure, shortened: as §2

kochia [7] = assay: Test A preemergence; format: in vivo, Kochia scoparia; settings: for Plant response rating, Kochia: 0 to 100 scale where 0 is no effect and 100 is complete control
Procedure, shortened: as §1

barnyardgrass [8] = assay: Test A postemergence; format: in vivo, Echinochloa crus-galli; settings: for Plant response rating, Barnyardgrass: 31 g ai/ha, 0 to 100 scale, 0 no effect, 100 complete control; for Barnyardgrass plant response rating: 125 g ai/ha, 0 to 100 scale where 0 is no effect and 100 is complete control
Procedure, shortened: as §1

barnyardgrass [9] = assay: Test A preemergence; format: in vivo, Echinochloa crus-galli; settings: 0 to 100 scale where 0 is no effect and 100 is complete control
Procedure, shortened: as §1

sedge, umbrella = assay: Test B flooded paddy test; format: in vivo, Cyperus difformis; settings: Flood, 250 g ai/ha; 0 to 100 scale where 0 is no effect and 100 is complete control
Procedure, shortened: as §2

ragweed [10] = assay: Test A postemergence; format: in vivo, Ambrosia elatior; settings: for Plant response rating, Ragweed: 31 g ai/ha, 0 to 100 scale, 0 no effect, 100 complete control; for Ragweed plant response rating: 125 g ai/ha, 0 to 100 scale where 0 is no effect and 100 is complete control
Procedure, shortened: as §1

ragweed [11] = assay: Test A preemergence; format: in vivo, Ambrosia elatior; settings: for Plant response rating, Ragweed: 0 to 100 scale where 0 is no effect and 100 is complete control
Procedure, shortened: as §1

corn = assay: Test A postemergence; format: in vivo, Zea mays; settings: for Plant response rating, Corn: 31 g ai/ha, 0 to 100 scale, 0 no effect, 100 complete control; for Corn plant response rating: 125 g ai/ha, 0 to 100 scale where 0 is no effect and 100 is complete control
Procedure, shortened: as §1

kochia [12] = assay: Test A postemergence; format: in vivo, Kochia scoparia; settings: for Plant response rating, Kochia: 31 g ai/ha, 0 to 100 scale, 0 no effect, 100 complete control; for Kochia plant response rating: 125 g ai/ha, 0 to 100 scale where 0 is no effect and 100 is complete control
Procedure, shortened: as §1

rice = assay: Test B flooded paddy test; format: in vivo, Oryza sativa; settings: Flood, 250 g ai/ha; 0 to 100 scale where 0 is no effect and 100 is complete control
Procedure, shortened: as §2

pigweed [13] = assay: Test A preemergence; format: in vivo, Amaranthus retroflexus; settings: for Plant response rating, Pigweed: 0 to 100 scale where 0 is no effect and 100 is complete control
Procedure, shortened: as §1

[14] = 31 g ai/ha, visual, approximately 10 days

Row | Structure (SMILES) | Plant response rating, Foxtail, Giant (giant foxtail [1]) | Foxtail, Giant plant response rating (giant foxtail [1]) | Plant response rating, Blackgrass (blackgrass) | Blackgrass plant response rating (blackgrass) | Plant response rating, Ryegrass, Italian (Italian ryegrass [2]; [14]) | Plant response rating, Ryegrass, Italian (Italian ryegrass [3]) | Ryegrass, Italian plant response rating (Italian ryegrass [3]) | Plant response rating, Galium (galium) | Galium plant response rating (galium) | Plant response rating, Pigweed (pigweed [4]) | Pigweed plant response rating (pigweed [4]) | Plant response rating, Wheat (wheat) | Wheat plant response rating (wheat) | Plant response rating, Foxtail, Giant (giant foxtail [5]; [14]) | Plant response rating, Foxtail, Giant (giant foxtail [5]; 125 g ai/ha) | Plant response rating, Barnyardgrass (barnyardgrass [6]) | Plant response rating, Ducksalad (Heteranthera limosa) | Plant response rating, Kochia (kochia [7]; [14]) | Plant response rating, Barnyardgrass (barnyardgrass [8]) | Barnyardgrass plant response rating (barnyardgrass [8]) | other results
1 | Fc1cnc(Oc2cccc(Br)c2-n2cc(OCC(F)(F)F)cn2)nc1 [Compound 157] | 10 | 80 | 30 | 50 | 0 | 0 | 20 | 60 | 90 | 90 | 100 | 0 | 0 | 70 | 100 | 35 | 80 | 60 | 10 | 80 | Plant response rating, Ryegrass, Italian (Italian ryegrass [2]; 125 g ai/ha): 0; Plant response rating, Kochia (kochia [7]; 125 g ai/ha): 90; Plant response rating, Barnyardgrass (barnyardgrass [9]; [14]): 20; Plant response rating, Barnyardgrass (barnyardgrass [9]; 125 g ai/ha): 80; Plant response rating, Sedge, Umbrella (sedge, umbrella): 75; Plant response rating, Ragweed (ragweed [10]): 20; Ragweed plant response rating (ragweed [10]): 50; Plant response rating, Ragweed (ragweed [11]; 125 g ai/ha): 30; Plant response rating, Corn (corn): 0; Corn plant response rating (corn): 40; Plant response rating, Kochia (kochia [12]): 60; Kochia plant response rating (kochia [12]): 100; Plant response rating, Rice (rice): 35; Plant response rating, Pigweed (pigweed [13]; [14]): 90; Plant response rating, Pigweed (pigweed [13]; 125 g ai/ha): 90
2 | COc1cccc(Oc2ncc(Cl)cn2)c1-n1cc(Cl)cn1 [Compound 169] | 0 | 40 | 0 | 30 | 0 | 0 | 0 | 10 | 40 | 10 | 20 | 0 | 0 | 30 | 80 | 25 | 65 | 0 | 0 | 20 | Ryegrass, Italian plant response rating (0 to 100 scale) (Italian ryegrass [2]; 125 g ai/ha): 0; Kochia plant response rating (0 to 100 scale) (kochia [7]; 125 g ai/ha): 0; Plant response rating, Barnyardgrass (barnyardgrass [9]; [14]): 10; Plant response rating, Barnyardgrass (barnyardgrass [9]; 125 g ai/ha): 50; Plant response rating, Sedge, Umbrella (sedge, umbrella): 75; Plant response rating, Ragweed (ragweed [10]): 10; Ragweed plant response rating (ragweed [10]): 60; Plant response rating, Ragweed (ragweed [11]; [14]): 0; Ragweed plant response rating (0 to 100 scale) (ragweed [11]; 125 g ai/ha): 0; Plant response rating, Corn (corn): 0; Corn plant response rating (corn): 0; Plant response rating, Kochia (kochia [12]): 0; Kochia plant response rating (kochia [12]): 10; Plant response rating, Rice (rice): 15; Plant response rating, Pigweed (pigweed [13]; [14]): 0; Pigweed plant response rating (0 to 100 scale) (pigweed [13]; 125 g ai/ha): 80
